Source: ChEMBL document CHEMBL1137041, “Novel epicatechin derivatives with antioxidant activity modulate interleukin-1beta release in lipopolysaccharide-stimulated human blood” (Bioorg Med Chem Lett, 2004)

experiment: In vitro antioxidant effect by the inhibition of AAPH-induced lysis of human red blood cells (RBC); assay type: functional

IC50 | Structure (SMILES)
89.4 µM | NCCS[C@H]1c2c(O)cc(O)cc2O[C@H](c2ccc(O)c(O)c2)[C@@H]1O
74.9 µM | N[C@@H](CS[C@H]1c2c(O)cc(O)cc2O[C@H](c2ccc(O)c(O)c2)[C@@H]1O)C(=O)O
120 µM | Oc1cc(O)c2c(c1)O[C@H](c1ccc(O)c(O)c1)[C@H](O)C2 [(-)-EPICATECHIN]
